How the values were obtained:
HSV-1 [1] = assay: HSV-1 infected SH-SY5Y cells, immunocytochemistry for HSV-1 proteins, Aβ and P-tau; type: cell-based, herpes simplex virus type 1; details: MOI 0.01 pfu/cell, 24 h; for staining for Aβ / staining for P-tau: 0.025-25 μM
Protocol: (§1) SH-SY5Y cells were infected with HSV-1 at 0.01 plaque forming units (pfu) per cell [pfu/cell] for 24 hours and treated with varying concentrations of ACV and/or the exemplary compound according to Formula (I). Subsequently, cells were fixed and examined for HSV-1 proteins (A), Aβ (B) and P-tau (C) by immunocytochemistry. 1=vehicle; 2-5=increasing concentrations of the exemplary compound according to Formula (I) [0.025, 0.25, 2.5, 25 μM]; 6-9=increasing concentrations of acyclovir [0.025, 0.25, 2.5, 25 μM].
(§2) The inventors have compared the efficacy of the exemplary compound according to Formula (I) with that of ACV in respect to Aβ and P-tau accumulation in HSV-1 infected cells. African green monkey kidney (Vero) cells or human neuroblastoma (SH-SY5Y) cells were infected with HSV-1 at a multiplicity of infection (MOI) of 0.01 plaque forming units (pfu) per cell [pfu/cell] for 24 hours and were treated with the exemplary compound according to Formula (I), or ACV. The antiviral agents were added at the time of infection and remained throughout the infection. Infection led to typical cytopathic effects (clustering of infected cells positive for HSV-1 protein staining (FIGS. 1A and 2 A, panel 1)).

[2] = cited from earlier work
HSV-1 [3] = details: HSV-1-infected cell cultures; cited from earlier work
HSV-1 [4] = assay: HSV-1 infected Vero cells, immunocytochemistry for HSV-1 proteins, Aβ and P-tau; type: cell-based, herpes simplex virus type 1; details: MOI 0.01 pfu/cell, 24 h; for staining for Aβ / staining for P-tau: 0.025-25 μM
Protocol: as §1, with “Vero” for “SH-SY5Y”, “Aβ(B)” for “Aβ (B)”
as §2

[5] = in vivo; cited from earlier work
HSV = assay: murine HSV skin infection model; type: in vivo; details: oral doses of 5 mg/kg or higher once daily for four days; data not shown
Protocol: To assess the pharmacokinetic/pharmacodynamic profile the effective dose of the specific free base of N-[5-(aminosulfonyl)-4-methyl-1,3-thiazol-2-yl]-N-methyl-2-[4-(2-pyridinyl)phenyl]-acetamide was validated in a murine HSV skin infection model and associated plasma concentrations were determined (data not shown).
(§3) In healthy male volunteers these plasma concentrations were covered by a single dose of 40 mg as free base equivalent to the crystalline mono mesylate monohydrate salt of N-[5-(aminosulfonyl)-4-methyl-1,3-thiazol-2-yl]-N-methyl-2-[4-(2-pyridinyl)phenyl]-acetamide (see FIG. 4) and at steady state by daily doses of 25 mg as free base equivalent (see FIG. 5) for 21 days.

[6] = safety and tolerability in single and multiple dose phase I trials; type: in vivo, human; details: healthy male volunteers, single dose and daily doses for 21 days
Protocol: The results were compared with the effective concentration of the free base of N-[5-(aminosulfonyl)-4-methyl-1,3-thiazol-2-yl]-N-methyl-2-[4-(2-pyridinyl)phenyl]acetamide in cell culture and correlated to exposures reached in healthy male volunteers in single and multiple dose phase I trials (see FIGS. 4-7).
as §3

[7] = absolute bioavailability after oral administration; details: in vivo; oral administration of the mono mesylate monohydrate salt in a composition of the invention; human; read-out: absolute bioavailability of the free base
Text: In yet another aspect of the invention said absolute bioavailability of 70%±30% of the resultant free base form of N-[5-(aminosulfonyl)-4-methyl-1,3-thiazol-2-yl]-N-methyl-2-[4-(2-pyridinyl)-phenyl]acetamide is achieved in a human.
In the context of the present invention the term “bioavailability” denotes a subcategory of absorption. Bioavailability denotes the fraction of an administered oral dose of the crystalline N-[5-(aminosulfonyl)-4-methyl-1,3-thiazol-2-yl]-N-methyl-2-[4-(2-pyridinyl)-phenyl]acetamide mono methanesulfonic acid monohydrate of the invention that reaches the systemic circulation of a subject as the resultant free base form of N-[5-(aminosulfonyl)-4-methyl-1,3-thiazol-2-yl]-N-methyl-2-[4-(2-pyridinyl)-phenyl]acetamide. By definition, when a medication is administered intravenously, its bioavailability is 100%. However, when a medication is administered via other routes (such as orally), its bioavailability generally decreases (due to incomplete absorption and first-pass metabolism) or may vary from individual to individual. Bioavailability is one of the essential tools in pharmacokinetics, as bioavailability must be considered when calculating dosages for non-intravenous routes of administration.

[8] = higher concentrations 0.25, 2.5, 25 μM

bioavailability [7]	SMILES	cluster size of HSV-1 infected cells (HSV-1 protein staining) (HSV-1 [1]; 0.025 μM)	staining for Aβ (HSV-1 [1])	staining for P-tau (HSV-1 [1])	cluster size of HSV-1 infected cells (HSV-1 protein staining) (HSV-1 [1]; [8])	water solubility [2]	HSV-1 induced accumulation of Aβ and P-tau (HSV-1 [3])	cluster size of HSV-1 infected cells (HSV-1 protein staining) (HSV-1 [4]; 0.025 μM)	staining for Aβ (HSV-1 [4])	staining for P-tau (HSV-1 [4])	cluster size of HSV-1 infected cells (HSV-1 protein staining) (HSV-1 [4]; [8])	oral bioavailability [5]	antibody staining to HSV-1 proteins, Aβ and P-tau (HSV-1 [1])	suppression of murine HSV skin infection (HSV)	safety and tolerability [6]	antibody staining to HSV-1 proteins, Aβ and P-tau (HSV-1 [4])
	Nc1nc2c(ncn2COCCO)c(=O)[nH]1 [ACV, acyclovir, reference compound]	little effect on cluster sizes	still visible at higher concentrations of ACV	still visible at higher concentrations of ACV	reduced their sizes but less so than did the treatment with equimolar exemplary compound according to Formula (I)	poorly water-soluble	reduced the virus-induced accumulation of Aβ and P-tau	little effect on cluster sizes	still visible at higher concentrations of ACV	still visible at higher concentrations of ACV	reduced their sizes but less so than did the treatment with equimolar exemplary compound according to Formula (I)	15-30%				
70%	Cc1nc(N(C)C(=O)Cc2ccc(-c3ccccn3)cc2)sc1S(N)(=O)=O [N-[5-(aminosulfonyl)-4-methyl-1,3-thiazol-2-yl]-N-methyl-2-[4-(2-pyridinyl)phenyl]acetamid]	slightly smaller compared to control	reduced	reduced	clusters disappear and only occasionally infected cells could be detected			slightly smaller compared to control	reduced	reduced	clusters disappear and only occasionally infected cells could be detected		total or almost total removal of antibody staining	completely suppressed	safe and well tolerated up to the highest dose tested	total or almost total removal of antibody staining
